Measurements published in patent publication US8551727B2, “Gold nanoparticle based protease imaging probes and use thereof” (Korea Institute of Science and Technology, priority 2007, dated 2013).

How the values were obtained:
[1] = system: cancerous tissue overexpressing MMP-2 (SCC7); experiment: Fluorescence of gold nanosensor in removed cancerous tissue; format: in vivo, C3H/HeN mouse
Procedure: Depending on whether the MMP-2 inhibitor was injected into the cancerous tissue overexpressing MMP-2, the fluorescence of the MMP-2 gold nanosensor was observed.

MMP-2 = target: T1, MMP-2 (Homo sapiens, UniProt P08253); experiment: Fluorescence exhibition due to enzyme degradation of gold nanosensor by activated MMP-2 (96-well, Kodak Image Station); format: biochemical; details: 37° C., 2 hours
T1 sequence (P08253 110-660): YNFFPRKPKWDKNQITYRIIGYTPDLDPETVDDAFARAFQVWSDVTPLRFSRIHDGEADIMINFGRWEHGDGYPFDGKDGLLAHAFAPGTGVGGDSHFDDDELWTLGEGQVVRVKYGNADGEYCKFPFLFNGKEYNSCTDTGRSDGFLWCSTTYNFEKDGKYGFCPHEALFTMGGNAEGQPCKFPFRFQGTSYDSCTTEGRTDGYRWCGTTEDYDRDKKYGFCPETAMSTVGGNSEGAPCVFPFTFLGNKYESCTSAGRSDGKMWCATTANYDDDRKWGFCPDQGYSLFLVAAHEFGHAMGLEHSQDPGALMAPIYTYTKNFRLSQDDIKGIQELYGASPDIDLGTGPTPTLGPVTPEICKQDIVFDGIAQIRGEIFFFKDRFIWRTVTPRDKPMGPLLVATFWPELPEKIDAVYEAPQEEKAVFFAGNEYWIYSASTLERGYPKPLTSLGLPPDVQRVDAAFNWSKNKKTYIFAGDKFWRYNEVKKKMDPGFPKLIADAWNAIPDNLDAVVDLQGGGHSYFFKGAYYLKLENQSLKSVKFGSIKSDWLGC
Procedure: (§1) A gold nanosensor was reacted respectively with MMP-2 and MMP-13 each activated in the 96-well, a scramble peptide (i.e., a peptide having the same amino acid contained structure but having different sequence so as not to act as a substrate with respect to a specific enzyme) and MMP-2/MMP-2 inhibitor at temperature of 37° C. for 2 hours, and thereafter a fluorescence exhibition due to the enzyme degradation was observed.
(§2) First, in order to activate the MMP-2 and MMP-13, the MMPs were added into a TCNB mixture (containing 0.1M of tris, 5 mM of calcium chloride, 200 mM of NaCl and 0.1% of Brij) having 2.5 mmol/L of p-aminophenyl mercuric acid added thereto, so as to be reacted at temperature of 37° C. for 1 hour. The activated MMP-2 and MMP-13 were reacted with the gold nanosensor in 200 μL of mixture in each well at temperature of 37° C. for 2 hours, and thereafter the degree of the fluorescence was observed using Kodak Image Station 4000MM Digital Imaging System built in a […] (Charge Coupled Device) camera.
The MMP gold nanosensor was used to quantitatively analyze the concentration of MMP-2 protease. In more detail, according to the same experimental way to that in Example 2-2, each of activated MMP-2s having concentrations of 0, 1.4, 3.5, 7 and 14 nmol/L, respectively, was added to the MMP-2 gold nanosensor to be reacted at temperature of 37° C. for 2 hours, and then the degree of the fluorescence was observed using the Kodak Image Station 4000MM Digital Imaging System.

MMP-13 = MMP-13 (Homo sapiens, UniProt P45452); experiment: Fluorescence exhibition due to enzyme degradation of gold nanosensor by activated MMP-13 (96-well, Kodak Image Station); format: biochemical; details: state (c), 37° C., 2 hours
Procedure: as §1, §2

[2] = system: Invasive squamous cell carcinoma (SCC7); experiment: Real-time imaging of cancerous tissue in cancer animal models; format: in vivo, C3H/HeN mouse; details: 100 ul
Procedure: Invasive squamous cell carcinoma (SCC7) was injected into C3H/HeN mouse to create a cancer animal model. For the cancerous tissue with a size of more than 5 mm, the MMP-2 gold nanosensor was injected into the cancerous tissue, to thereafter estimate the possibility of imaging the cancer cell.
The invasive squamous cell carcinoma (SCC7) is known as a cancer cell expressing a great amount of MMP-2. The experiment was performed with respect to three animal test groups including a normal mouse having MMP-2 gold nanosensor (100 ul, 10 nM/mL) injected thereinto and a cancer mouse also having MMP-2 gold nanosensor (100 ul, 10 nM/mL) injected thereinto, and a cancer mouse having both MMP-2 gold sensor and MMP-2 inhibitor injected thereinto.

[3] = Particle analysis of MMP selective gold nanosensor (TEM and light scattering); format: physicochemical
Procedure: For the gold nanoparticle derivatives prepared in Example 1-3, the size of nanoparticle was measured using transmission electron microcopy (TEM) and light scattering (Brookhaven Instrument).

- fluorescence, MMP-2 added (MMP-2; MMP-2 added): bright fluorescence was exhibited
- fluorescence, MMP-2 not added (MMP-2; state (a), no MMP-2): fluorescence quenched
- fluorescence in the reaction with MMP-2 inhibitor (MMP-2; state (e), MMP-2/MMP-2 inhibitor): no fluorescence is emitted
- fluorescence with respect to MMP-13 (MMP-13): rarely exhibits fluorescence
Substance: Cy5.5-GPLGLFARC-Gold [MMP selective gold nanosensor]
- fluorescence in removed cancerous tissue treated with MMP-2 inhibitor ([1]; cancerous tissue (+inh)): remarkably low fluorescence
- fluorescence in removed cancerous tissue not treated with MMP-2 inhibitor ([1]; cancerous tissue (−inh)): remarkably high fluorescence
- fluorescence versus MMP-2 concentration (MMP-2; activated MMP-2 at 0, 1.4, 3.5, 7 and 14 nmol/L): increased in proportion to the concentration of the added MMP-2 enzyme
- fluorescence in mouse with cancer cell ([2]; Au NP (SCC7 tumor), 10 nM/mL injected into cancerous tissue): emitted high fluorescence as time elapses
- fluorescence in normal mouse ([2]; normal mouse without the cancer cell, 10 nM/mL injected): did not exhibit fluorescence
- size of nanoparticle (average) [3]: approximately 20 nm
